Test results as given in patent publication US9694016B2 (Novartis AG, priority 2013, dated 2017).
pIC50: −log10 of the molar value.

What follows are compounds tested against b-Raf (V600E) (Homo sapiens (Human), UniProt P15056, V600E). Details: read-out: b-Raf IC-50; Table 2; AlphaScreen, 3 hours reaction.
Chain of b-Raf (V600E) (P15056 whole entry V600E): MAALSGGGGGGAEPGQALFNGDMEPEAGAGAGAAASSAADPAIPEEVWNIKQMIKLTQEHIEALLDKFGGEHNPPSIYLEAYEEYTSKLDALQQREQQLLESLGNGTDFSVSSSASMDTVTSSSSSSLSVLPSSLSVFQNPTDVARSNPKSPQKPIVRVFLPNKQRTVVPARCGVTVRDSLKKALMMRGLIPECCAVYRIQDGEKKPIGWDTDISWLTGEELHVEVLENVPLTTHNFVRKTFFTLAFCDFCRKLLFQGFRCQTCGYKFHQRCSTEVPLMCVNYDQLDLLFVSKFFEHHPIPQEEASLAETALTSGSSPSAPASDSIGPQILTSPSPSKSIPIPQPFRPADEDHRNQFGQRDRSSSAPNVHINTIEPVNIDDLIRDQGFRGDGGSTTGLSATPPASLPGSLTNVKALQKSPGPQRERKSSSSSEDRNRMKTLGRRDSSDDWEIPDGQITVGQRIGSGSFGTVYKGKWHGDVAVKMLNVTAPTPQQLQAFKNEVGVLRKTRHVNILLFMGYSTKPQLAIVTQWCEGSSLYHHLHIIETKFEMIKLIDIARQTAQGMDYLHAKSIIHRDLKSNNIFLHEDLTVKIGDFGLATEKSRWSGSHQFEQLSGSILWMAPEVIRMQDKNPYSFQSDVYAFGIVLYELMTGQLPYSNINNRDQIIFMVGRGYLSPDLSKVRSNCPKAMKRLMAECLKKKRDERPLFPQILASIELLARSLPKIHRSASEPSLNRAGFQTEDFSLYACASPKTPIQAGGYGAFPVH

SMILES	pIC50
CCOc1ncc(-c2cc(NC(=O)c3cnnc(C(C)(C)F)c3)ccc2C)cc1N1CCOCC1 [Example 304, N-(3-(6-ethoxy-5-morpholinopyridin-3-yl)-4-methylphenyl)-6-(2-fluoropropan-2-yl)pyridazine-4-carboxamide]	9.05
CCOc1ncc(-c2cc(C(=O)Nc3ccnc(C(F)(F)F)c3)ccc2C)cc1N1CCOCC1 [Example 306, 3-(6-ethoxy-5-morpholinopyridin-3-yl)-4-methyl-N-(2-(trifluoromethyl)pyridin-4-yl)benzamide]	8.96
Cc1ncc(NC(=O)c2cccc(C(F)(F)F)c2)cc1-c1cnc(N(C)C)c(N2CCOCC2)c1 [Example 307, N-(6′-(dimethylamino)-2-methyl-5′-morpholino-[3,3′-bipyridin]-5-yl)-3-(trifluoromethyl)benzamide]	9.22
Cc1ncc(NC(=O)c2ccnc(C(C)C)c2)cc1-c1cnc(N(C)C)c(N2CCOCC2)c1 [Example 308, N-(6′-(dimethylamino)-2-methyl-5′-morpholino-[3,3′-bipyridin]-5-yl)-2-isopropylisonicotinamide]	9.10
Cc1ncc(NC(=O)c2cccc(C(F)(F)F)c2)cc1-c1cnc(OC2CCOCC2)c(N2CCOCC2=O)c1 [Example 309, N-(2-methyl-5′-(3-oxomorpholino)-6′-((tetrahydro-2H-pyran-4-yl)oxy)-[3,3′-bipyridin]-5-yl)-3-(trifluoromethyl)benzamide]	8.04
Cc1ncc(NC(=O)c2cccc(C(F)(F)F)c2)cc1-c1cnc(O[C@H]2CCOC2)c(N2CCOCC2)c1 [Example 310, (S)—N-(2-methyl-5′-morpholino-6′-((tetrahydrofuran-3-yl)oxy)-[3,3′-bipyridin]-5-yl)-3-(trifluoromethyl)benzamide]	8.74
Cc1ncc(NC(=O)c2cccc(C(F)(F)F)c2)cc1-c1cnc(O[C@@H]2CCOC2)c(N2CCOCC2)c1 [Example 311, (R)—N-(2-methyl-5′-morpholino-6′-((tetrahydrofuran-3-yl)oxy)-[3,3′-bipyridin]-5-yl)-3-(trifluoromethyl)benzamide]	8.62
COCCOc1ncc(-c2cc(NC(=O)c3cccc(C(F)(F)F)c3)cnc2C)cc1N1CCOCC1 [Example 312, N-(6′-(2-methoxyethoxy)-2-methyl-5′-morpholino-[3,3′-bipyridin]-5-yl)-3-(trifluoromethyl)benzamide]	8.40
Cc1ncc(NC(=O)c2ccnc(C(C)C)c2)cc1-c1cnc(OC2CCOCC2)c(N2CCOCC2)c1 [Example 313, 2-isopropyl-N-(2-methyl-5′-morpholino-6′-((tetrahydro-2H-pyran-4-yl)oxy)-[3,3′-bipyridin]-5-yl)isonicotinamide]	8.15
Cc1ncc(NC(=O)c2ccnc(C(F)(F)F)c2)cc1-c1cnc(OC2CCOCC2)c(N2CCOCC2)c1 [Example 314, N-(2-methyl-5′-morpholino-6′-((tetrahydro-2H-pyran-4-yl)oxy)-[3,3′-bipyridin]-5-yl)-2-(trifluoromethyl)isonicotinamide]	8.22
Cc1ncc(NC(=O)c2cccc(C(F)(F)F)c2)cc1-c1cnc(OC2COC2)c(N2CCOCC2)c1 [Example 315]	9.10
Cc1ncc(NC(=O)c2cccc(C(F)(F)F)c2)cc1-c1cnc(O[C@H]2CC[C@H](O)CC2)c(N2CCOCC2)c1 [Example 316, N-(6′-(((1r,4r)-4-hydroxycyclohexyl)oxy)-2-methyl-5′-morpholino-[3,3′-bipyridin]-5-yl)-3-(trifluoromethyl)benzamide]	8.51
Cc1ncc(NC(=O)c2cccc(C(F)(F)F)c2)cc1-c1cnc(O[C@H]2CC[C@@H](O)CC2)c(N2CCOCC2)c1 [Example 317, N-(6′-(((1s,4s)-4-hydroxycyclohexyl)oxy)-2-methyl-5′-morpholino-[3,3′-bipyridin]-5-yl)-3-(trifluoromethyl)benzamide]	8.80
Cc1ncc(NC(=O)c2cccc(C(F)(F)F)c2)cc1-c1cnc(OC2CN(C)C2)c(N2CCOCC2)c1 [Example 321, N-(2-methyl-6′-((1-methylazetidin-3-yl)oxy)-5′-morpholino-[3,3′-bipyridin]-5-yl)-3-(trifluoromethyl)benzamide]	7.61
Cc1ncc(NC(=O)c2cccc(C(F)(F)F)c2)cc1-c1cnc(OC2CC3(COC3)C2)c(N2CCOCC2)c1 [Example 322, N-(6′-(2-oxaspiro[3.3]heptan-6-yloxy)-2-methyl-5′-morpholino-[3,3′-bipyridin]-5-yl)-3-(trifluoromethyl)benzamide]	8.96
COc1ncc(-c2cc(NC(=O)c3ccnc(C(C)C)c3)cnc2C)cc1N1CCOCC1 [Example 323, 2-isopropyl-N-(6′-methoxy-2-methyl-5′-morpholino-[3,3′-bipyridin]-5-yl)isonicotinamide]	7.89
COc1ncc(-c2cc(NC(=O)c3ccnc(C(F)(F)F)c3)cnc2C)cc1N1CCOCC1 [Example 324, N-(6′-methoxy-2-methyl-5′-morpholino-[3,3′-bipyridin]-5-yl)-2-(trifluoromethyl)isonicotinamide]	8.13
Cc1ncc(NC(=O)c2cccc(C(F)(F)F)c2)cc1-c1cnc(OC2CNC2)c(N2CCOCC2)c1 [Example 325, N-(6′-(azetidin-3-yloxy)-2-methyl-5′-morpholino-[3,3′-bipyridin]-5-yl)-3-(trifluoromethyl)benzamide]	6.52
Cc1ncc(NC(=O)c2cccc(C(F)(F)F)c2)cc1-c1cnc(C(C)(C)C#N)c(N2CCOCC2)c1 [Example 326, N-(6′-(2-cyanopropan-2-yl)-2-methyl-5′-morpholino-[3,3′-bipyridin]-5-yl)-3-(trifluoromethyl)benzamide]	8.43
Cc1ncc(NC(=O)c2cccc(C(F)(F)F)c2)cc1-c1cnc(CS(C)(=O)=O)c(N2CCOCC2)c1 [Example 327, N-(2-methyl-6′-((methylsulfonyl)methyl)-5′-morpholino-[3,3′-bipyridin]-5-yl)-3-(trifluoromethyl)benzamide]	8.41
Cc1ncc(N(C)C(=O)c2cccc(C(F)(F)F)c2)cc1-c1cnc(OC2CCOCC2)c(N2CCOCC2)c1 [Example 328, N-methyl-N-(2-methyl-5′-morpholino-6′-((tetrahydro-2H-pyran-4-yl)oxy)-[3,3′-bipyridin]-5-yl)-3-(trifluoromethyl)benzamide]	7.20
CCN(C(=O)c1cccc(C(F)(F)F)c1)c1cnc(C)c(-c2cnc(OC3CCOCC3)c(N3CCOCC3)c2)c1 [Example 329, N-ethyl-N-(2-methyl-5′-morpholino-6′-((tetrahydro-2H-pyran-4-yl)oxy)-[3,3′-bipyridin]-5-yl)-3-(trifluoromethyl)benzamide]	5.96
CCCN(C(=O)c1cccc(C(F)(F)F)c1)c1cnc(C)c(-c2cnc(OC3CCOCC3)c(N3CCOCC3)c2)c1 [Example 330, N-(2-methyl-5′-morpholino-6′-((tetrahydro-2H-pyran-4-yl)oxy)-[3,3′-bipyridin]-5-yl)-N-propyl-3-(trifluoromethyl)benzamide]	5.62
CCn1cc(-c2cc(NC(=O)c3ccnc(C(C)(C)C#N)c3)cnc2C)cc(N2CCOCC2)c1=O [Example 332, 2-(2-cyanopropan-2-yl)-N-(1′-ethyl-2-methyl-5′-morpholino-6′-oxo-1′,6′-dihydro-[3,3′-bipyridin]-5-yl)isonicotinamide]	7.63
